PubChem BioAssay (NCI)
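Following 48 hours of exposure in 96-well plates, responses at five concentrations were used to interpolate endpoints linearly. At the TGI there is no net growth.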

Tests used:
Test in all cases: DTP human tumour cell line panel, 48 h
786-0 renal = test system: 786-0 renal
A549 NSCLC = test system: A549 NSCLC
ACHN renal = test system: ACHN renal
CAKI-1 renal = test system: CAKI-1 renal
CCRF-CEM leukemia = test system: CCRF-CEM leukemia
COLO 205 colon = test system: COLO 205 colon
DLD-1 colon = test system: DLD-1 colon
DMS 273 small cell lung = test system: DMS 273 small cell lung
EKVX NSCLC = test system: EKVX NSCLC
HCC-2998 colon = test system: HCC-2998 colon
HCT-116 colon = test system: HCT-116 colon
HCT-15 colon = test system: HCT-15 colon
HL-60(TB) leukemia = test system: HL-60(TB) leukemia
HOP-18 NSCLC = test system: HOP-18 NSCLC
HOP-62 NSCLC = test system: HOP-62 NSCLC
HOP-92 NSCLC = test system: HOP-92 NSCLC
HT29 colon = test system: HT29 colon
IGROV1 ovarian = test system: IGROV1 ovarian
K-562 leukemia = test system: K-562 leukemia
KM12 colon = test system: KM12 colon
KM20L2 colon = test system: KM20L2 colon
LOX IMVI melanoma = test system: LOX IMVI melanoma
LXFL 529 NSCLC = test system: LXFL 529 NSCLC
M14 melanoma = test system: M14 melanoma
M19-MEL melanoma = test system: M19-MEL melanoma
MOLT-4 leukemia = test system: MOLT-4 leukemia
NCI-H226 lung = test system: NCI-H226 lung
NCI-H23 lung = test system: NCI-H23 lung
NCI-H460 lung = test system: NCI-H460 lung
NCI-H522 lung = test system: NCI-H522 lung
OVCAR-3 ovarian = test system: OVCAR-3 ovarian
OVCAR-4 ovarian = test system: OVCAR-4 ovarian
OVCAR-5 ovarian = test system: OVCAR-5 ovarian
OVCAR-8 ovarian = test system: OVCAR-8 ovarian
RPMI-8226 leukemia = test system: RPMI-8226 leukemia
RXF 393 renal = test system: RXF 393 renal
RXF-631 renal = test system: RXF-631 renal
SF-268 CNS = test system: SF-268 CNS
SF-295 CNS = test system: SF-295 CNS
SF-539 CNS = test system: SF-539 CNS
SK-MEL-2 melanoma = test system: SK-MEL-2 melanoma
SK-MEL-28 melanoma = test system: SK-MEL-28 melanoma
SK-MEL-5 melanoma = test system: SK-MEL-5 melanoma
SK-OV-3 ovarian = test system: SK-OV-3 ovarian
SN12C renal = test system: SN12C renal
SNB-19 CNS = test system: SNB-19 CNS
SNB-75 CNS = test system: SNB-75 CNS
SNB-78 CNS = test system: SNB-78 CNS
SR leukemia = test system: SR leukemia
SW-620 colon = test system: SW-620 colon
TK-10 renal = test system: TK-10 renal
U251 CNS = test system: U251 CNS
UACC-257 melanoma = test system: UACC-257 melanoma
UACC-62 melanoma = test system: UACC-62 melanoma
UO-31 renal = test system: UO-31 renal
XF 498 CNS = test system: XF 498 CNS
A498 renal = test system: A498 renal
DMS 114 small cell lung = test system: DMS 114 small cell lung
MALME-3M melanoma = test system: MALME-3M melanoma

Structure (SMILES): Cc1ccc(S(=O)(=O)O/N=C2\CCC\C2=C/c2ccccc2)cc1
- TGI (786-0 renal): 67.9 µM
- TGI (A549 NSCLC): > 100 µM
- TGI (ACHN renal): 23.3 µM
- TGI (CAKI-1 renal): 36.8 µM
- TGI (CCRF-CEM leukemia): > 100 µM
- TGI (COLO 205 colon): 29.8 µM
- TGI (DLD-1 colon): 46.3 µM
- TGI (DMS 273 small cell lung): > 100 µM
- TGI (EKVX NSCLC): 35.3 µM
- TGI (HCC-2998 colon): 31.6 µM
- TGI (HCT-116 colon): 25.3 µM
- TGI (HCT-15 colon): 73.8 µM
- TGI (HL-60(TB) leukemia): > 100 µM
- TGI (HOP-18 NSCLC): 34.6 µM
- TGI (HOP-62 NSCLC): > 100 µM
- TGI (HOP-92 NSCLC): 34.5 µM
- TGI (HT29 colon): 60.1 µM
- TGI (IGROV1 ovarian): > 100 µM
- TGI (K-562 leukemia): > 100 µM
- TGI (KM12 colon): 32.6 µM
- TGI (KM20L2 colon): 49 µM
- TGI (LOX IMVI melanoma): > 100 µM
- TGI (LXFL 529 NSCLC): 83.9 µM
- TGI (M14 melanoma): 47.4 µM
- TGI (M19-MEL melanoma): 44.3 µM
- TGI (MOLT-4 leukemia): 29.2 µM
- TGI (NCI-H226 lung): 37.7 µM
- TGI (NCI-H23 lung): 38.9 µM
- TGI (NCI-H460 lung): 47.9 µM
- TGI (NCI-H522 lung): 37.8 µM
- TGI (OVCAR-3 ovarian): 32.8 µM
- TGI (OVCAR-4 ovarian): 58.6 µM
- TGI (OVCAR-5 ovarian): 42.6 µM
- TGI (OVCAR-8 ovarian): > 100 µM
- TGI (RPMI-8226 leukemia): 37.3 µM
- TGI (RXF 393 renal): 44 µM
- TGI (RXF-631 renal): 36.5 µM
- TGI (SF-268 CNS): 27.7 µM
- TGI (SF-295 CNS): 50.1 µM
- TGI (SF-539 CNS): 43.5 µM
- TGI (SK-MEL-2 melanoma): 30.8 µM
- TGI (SK-MEL-28 melanoma): 24.1 µM
- TGI (SK-MEL-5 melanoma): 28.4 µM
- TGI (SK-OV-3 ovarian): > 100 µM
- TGI (SN12C renal): > 100 µM
- TGI (SNB-19 CNS): > 100 µM
- TGI (SNB-75 CNS): 44.1 µM
- TGI (SNB-78 CNS): 13 µM
- TGI (SR leukemia): 43.4 µM
- TGI (SW-620 colon): > 100 µM
- TGI (TK-10 renal): 30.4 µM
- TGI (U251 CNS): 88.6 µM
- TGI (UACC-257 melanoma): 31.4 µM
- TGI (UACC-62 melanoma): 27.2 µM
- TGI (UO-31 renal): 42.5 µM
- TGI (XF 498 CNS): 33.3 µM

Structure (SMILES): CCN(C1=CC(=O)NC2CCCCN12)c1ccccc1 (configuration not stated)
- TGI (786-0 renal): > 100 µM
- TGI (A498 renal): > 100 µM
- TGI (A549 NSCLC): > 100 µM
- TGI (ACHN renal): > 100 µM
- TGI (CAKI-1 renal): > 100 µM
- TGI (CCRF-CEM leukemia): > 100 µM
- TGI (COLO 205 colon): > 100 µM
- TGI (DLD-1 colon): > 100 µM
- TGI (DMS 114 small cell lung): > 100 µM
- TGI (DMS 273 small cell lung): > 100 µM
- TGI (EKVX NSCLC): > 100 µM
- TGI (HCC-2998 colon): > 100 µM
- TGI (HCT-116 colon): > 100 µM
- TGI (HCT-15 colon): > 100 µM
- TGI (HOP-18 NSCLC): > 100 µM
- TGI (HOP-62 NSCLC): > 100 µM
- TGI (HT29 colon): > 100 µM
- TGI (IGROV1 ovarian): > 100 µM
- TGI (K-562 leukemia): > 100 µM
- TGI (KM12 colon): > 100 µM
- TGI (KM20L2 colon): > 100 µM
- TGI (LOX IMVI melanoma): > 100 µM
- TGI (LXFL 529 NSCLC): > 100 µM
- TGI (M14 melanoma): > 100 µM
- TGI (M19-MEL melanoma): > 100 µM
- TGI (MALME-3M melanoma): > 100 µM
- TGI (MOLT-4 leukemia): > 100 µM
- TGI (NCI-H23 lung): > 100 µM
- TGI (NCI-H460 lung): > 100 µM
- TGI (OVCAR-3 ovarian): > 100 µM
- TGI (OVCAR-4 ovarian): > 100 µM
- TGI (OVCAR-5 ovarian): > 100 µM
- TGI (OVCAR-8 ovarian): > 100 µM
- TGI (RPMI-8226 leukemia): > 100 µM
- TGI (RXF 393 renal): > 100 µM
- TGI (RXF-631 renal): > 100 µM
- TGI (SF-268 CNS): > 100 µM
- TGI (SF-295 CNS): > 100 µM
- TGI (SF-539 CNS): > 100 µM
- TGI (SK-MEL-2 melanoma): > 100 µM
- TGI (SK-MEL-28 melanoma): > 100 µM
- TGI (SK-MEL-5 melanoma): > 100 µM
- TGI (SK-OV-3 ovarian): > 100 µM
- TGI (SN12C renal): > 100 µM
- TGI (SNB-19 CNS): > 100 µM
- TGI (SNB-75 CNS): > 100 µM
- TGI (SNB-78 CNS): > 100 µM
- TGI (SW-620 colon): > 100 µM
- TGI (TK-10 renal): > 100 µM
- TGI (U251 CNS): > 100 µM
- TGI (UACC-257 melanoma): > 100 µM
- TGI (UACC-62 melanoma): > 100 µM
- TGI (XF 498 CNS): > 100 µM

Structure (SMILES): O=C1c2ccccc2C(=O)N1C/C=N/NS(=O)(=O)c1ccc2ccccc2c1
- TGI (786-0 renal): > 100 µM
- TGI (A498 renal): > 100 µM
- TGI (A549 NSCLC): > 100 µM
- TGI (ACHN renal): > 100 µM
- TGI (CAKI-1 renal): > 100 µM
- TGI (CCRF-CEM leukemia): > 100 µM
- TGI (COLO 205 colon): > 100 µM
- TGI (DLD-1 colon): > 100 µM
- TGI (DMS 273 small cell lung): > 100 µM
- TGI (EKVX NSCLC): > 100 µM
- TGI (HCC-2998 colon): > 100 µM
- TGI (HCT-116 colon): > 100 µM
- TGI (HCT-15 colon): > 100 µM
- TGI (HL-60(TB) leukemia): > 100 µM
- TGI (HOP-18 NSCLC): > 100 µM
- TGI (HOP-62 NSCLC): > 100 µM
- TGI (HT29 colon): > 100 µM
- TGI (IGROV1 ovarian): > 100 µM
- TGI (K-562 leukemia): > 100 µM
- TGI (KM12 colon): > 100 µM
- TGI (KM20L2 colon): > 100 µM
- TGI (LXFL 529 NSCLC): > 100 µM
- TGI (M14 melanoma): > 100 µM
- TGI (M19-MEL melanoma): > 100 µM
- TGI (MALME-3M melanoma): > 100 µM
- TGI (MOLT-4 leukemia): > 100 µM
- TGI (NCI-H226 lung): > 100 µM
- TGI (NCI-H23 lung): > 100 µM
- TGI (NCI-H460 lung): > 100 µM
- TGI (NCI-H522 lung): > 100 µM
- TGI (OVCAR-3 ovarian): > 100 µM
- TGI (OVCAR-4 ovarian): > 100 µM
- TGI (OVCAR-5 ovarian): > 100 µM
- TGI (OVCAR-8 ovarian): > 100 µM
- TGI (RPMI-8226 leukemia): > 100 µM
- TGI (RXF-631 renal): > 100 µM
- TGI (SF-295 CNS): > 100 µM
- TGI (SF-539 CNS): > 100 µM
- TGI (SK-MEL-2 melanoma): > 100 µM
- TGI (SK-MEL-5 melanoma): > 100 µM
- TGI (SK-OV-3 ovarian): > 100 µM
- TGI (SN12C renal): > 100 µM
- TGI (SNB-19 CNS): > 100 µM
- TGI (SNB-75 CNS): > 100 µM
- TGI (SNB-78 CNS): > 100 µM
- TGI (SR leukemia): > 100 µM
- TGI (SW-620 colon): > 100 µM
- TGI (TK-10 renal): > 100 µM
- TGI (U251 CNS): > 100 µM
- TGI (UACC-257 melanoma): > 100 µM
- TGI (UACC-62 melanoma): > 100 µM
- TGI (UO-31 renal): > 100 µM
- TGI (XF 498 CNS): > 100 µM
